According to US10975056B2 (GlaxoSmithKline Intellectual Property Development Limited, priority 2016, dated 2021):
Counter-ions that a name gives are not always drawn.

Assays:
DNMT1 = DNMT1 (Homo sapiens, UniProt P26358); test: DNMT1 biochemical activity, breaklight assay and/or SPA assay; conditions: for DNMT1 BioChemical (pIC50 category) / IC50: binned activity in either the breaklight or the SPA assay; for IC50: read-out: DNMT1 BioChemical (pIC50 category) (converted)
Method: DNMT1 breaklight in vitro assays were conducted in a total volume of 50 μl in a standard 384 well format, using black non-binding surface microplates (Corning 3575). […] Negative control wells used 5 μl of DNMT1 and 5 μl of oligonucleotide but 0 μM SAM. All reagents were made up in 1× assay buffer (20 mM Tris pH 6.8, 25 mM NaCl, 0.5 mM MgCl2, 0.01% Triton X100 and 1 mM DTT). The reaction was incubated at 26° C. for 45 min and then stopped with the addition of 40 μl detection reagent. Detection reagent, made up in 1× Gla assay buffer (20 mM Tris pH 8.0, 80 mM NaCl, 0.75 mM MgCl2, 0.01% Triton X100 and 1 mM DTT) has a final concentration of 100 μM SAH (Sigma #A9384) and 0.0008 units/μl Gla1 restriction endonuclease (Sibenzyme #E494). Following addition of the detection reagent the plate was incubated in the dark at room temperature for 5 hr. Fluorescence intensity was then measured on the PHERAstar FS (BMG Labtech) at Ex 485 nm and Em 520 nm, with a gain of 400 and an integration time of 100 ms.
Biochemical activity of DNMT1 analyzed using SPA technology. Plates (Griener 784075) were pre-stamped with 100 nL/well of compound (11-point, 3-fold serial dilution). […] Low control wells contained 5 μL of buffer instead of enzyme. Following a 40 minute incubation, the reaction was quenched upon the addition of 10 μL of stop mixture containing 1 mM SAM (Sigma A7007) and 2 mg/mL PEI beads (Perkin Elmer RPNQ0098). Plates were sealed, centrifuged for 1 min and then read on a Viewlux (Perkin Elmer) using the 613 nm emission filter/300 s read time following a 30 minute dark adapt. Assay conditions prior to quench consisted of 40 nM DNMT1 (601-1600, produced internally), 100 nM 3H-SAM (American Radiolabeled Chemicals ART 0288), 900 nM SAM (New England BioLabs B9003S) and 200 nM hemi methylated DNA oligonucleotide (synthesized at Integrated DNA Technologies, 5′-[…]-3′) in 50 mM HEPES (pH 8.0), 2 mM MgCl2, 1 mM DTT, 0.01% NP-40 and 0.01% BSA.
Comments • 1. […] Where a field is empty, the compound was not tested in that assay.

[1] = system: erythroid progenitor cells (EPCs); test: Fetal hemoglobin (HbF) ELISA in day 7 erythroid progenitor cells; type: cell-based, human; conditions: Homo sapiens, Erythroid progenitor cell, HbF ELISA, day 7 EPCs, 5 days; read-out: EPC ELISA (pEC50 category) (converted)
Method: Day 7 EPCs were cultured in duplicate plates with serially diluted Compound A for 5 days at 37° C. Wells were then analyzed for either induction of fetal hemoglobin (HbF,HbF ELISA) or cell growth (Cell Titer-Glo). In both cases, signal was normalized to vehicle-control treated cells.
Culture, Expansion, and Characterization of Day 7 Erythroid Progenitor Cells (EPC)s
All donors provided written informed consent for use of their samples, and the collection and use of the samples received institutional review board approval. All cryopreserved human bone marrow CD34+ cells used here were obtained from AlICells (Emeryville, Calif.) and were generally from different donors. The CD34+ cells were cultured to generate EPCs at day 7. Briefly, 1 million cells were cultured in 5% CO2, 5% O2 at 37° C. in H3000 Stemspan media (StemCell Technologies Vancouver, BC, Canada) supplemented with 2 mM L-glutamine, 40 μg/mL human low-density lipoproteins (StemCell Technologies), 10 ng/mL recombinant human (rh) interleukin IL-3 (R&D Systems, Minneapolis, Minn.), 100 ng/mL rh stem cell factor (R&D Systems), and 0.5 U/mL rh erythropoietin (Invitrogen, Grand Island, N.Y.). Cells were split and refed on day 4 with complete culture media described above and harvested on day 7 for evaluation of erythroid marker expression and assessment of γ-globin induction. Day 7 EPCs were then frozen in liquid nitrogen at 5 to 10 million cells/mL in 95% fetal bovine serum (FBS; Invitrogen) with 5% DMSO for subsequent use.
At the time of compound treatment, frozen day 7 EPCs prepared as described above were thawed, washed once and re-suspended in complete culture media as described above with the exception of an increase of rhEPO to 3 U/mL. Cells were counted and diluted to […] for plating into assay plates. Cells were then dispensed, at 30 μL per well with Multidrop™ Combi Reagent Dispenser (Thermo Scientific), into 384-well cell culture plates into which test compounds were pre-dispensed at 100 nL/well. Black Clear Bottom (Greiner Bio-One; 781090) and White (Greiner Bio-One; 781080) plates were used for ELISA and Cell Titer-Glo assays, respectively. The final cell density in the assays is 1,000 cells per well, with final compound concentrations between 33 nM (highest) and […] (lowest) for the 22-points serial dilution.
Fetal Hemoglobin (HbF) ELISA
Coating anti-HbF Ab (Bethyl Lab; cat. A80-136A) was diluted by 100-fold in the coating buffer (0.05 M carbonate-bicarbonate, pH 9.6), and then 20 μL/well was added to a 384-well MaxiSorp ELISA plate (Thermo Fisher; cat. 464718). After 1 hour incubation at room temperature, the plates were washed twice with ELISA washing buffer (50 mM Tris, 0.05% Tween 20, pH 8.0) with an EL406 plate washer (BioTek, Winooski, Vt.). Then, 40 μL/well of blocking buffer consisting of 50 mM Tris and 1% BSA (pH 8.0) was added to the plate and stored at 4° C. with cover sheet overnight, or until time of the assay. The coated ELISA plates were stable for up to 30 days at 4° C. On the day of assay, the plates were washed twice with ELISA washing buffer prior to addition of cell lysate.
After 5 days at 37° C. with 5% CO2 cell culture plates for ELISA assay were put into −80° C. freezer for a minimum of 2 hours. After thawing at room temperature, 30 μL of cell lysis buffer (Invitrogen; cat. FNN0011, supplemented with 1× protease inhibitor) was added to each well and the resulting cell lysate was mixed eight times with a Cybi-Well (Jena, Germany) pipettor. Following the mixing procedure, 20 μL/well of lysate was transferred to the coated ELISA plates described above followed by a 1 hour incubation at room temperature. The ELISA assay plates were washed three times with ELISA wash buffer. 20 μL per well of 1:75,000 to 100,000 diluted horseradish peroxidase (HRP) conjugate detection antiHbF Ab (Bethyl Labs; cat. A80-136P, diluted in 50 mM Tris [pH 8.0], 1% BSA, 0.05% Tween-20) was then added. […]

DNMT1, sequence (P26358 whole entry, looked up): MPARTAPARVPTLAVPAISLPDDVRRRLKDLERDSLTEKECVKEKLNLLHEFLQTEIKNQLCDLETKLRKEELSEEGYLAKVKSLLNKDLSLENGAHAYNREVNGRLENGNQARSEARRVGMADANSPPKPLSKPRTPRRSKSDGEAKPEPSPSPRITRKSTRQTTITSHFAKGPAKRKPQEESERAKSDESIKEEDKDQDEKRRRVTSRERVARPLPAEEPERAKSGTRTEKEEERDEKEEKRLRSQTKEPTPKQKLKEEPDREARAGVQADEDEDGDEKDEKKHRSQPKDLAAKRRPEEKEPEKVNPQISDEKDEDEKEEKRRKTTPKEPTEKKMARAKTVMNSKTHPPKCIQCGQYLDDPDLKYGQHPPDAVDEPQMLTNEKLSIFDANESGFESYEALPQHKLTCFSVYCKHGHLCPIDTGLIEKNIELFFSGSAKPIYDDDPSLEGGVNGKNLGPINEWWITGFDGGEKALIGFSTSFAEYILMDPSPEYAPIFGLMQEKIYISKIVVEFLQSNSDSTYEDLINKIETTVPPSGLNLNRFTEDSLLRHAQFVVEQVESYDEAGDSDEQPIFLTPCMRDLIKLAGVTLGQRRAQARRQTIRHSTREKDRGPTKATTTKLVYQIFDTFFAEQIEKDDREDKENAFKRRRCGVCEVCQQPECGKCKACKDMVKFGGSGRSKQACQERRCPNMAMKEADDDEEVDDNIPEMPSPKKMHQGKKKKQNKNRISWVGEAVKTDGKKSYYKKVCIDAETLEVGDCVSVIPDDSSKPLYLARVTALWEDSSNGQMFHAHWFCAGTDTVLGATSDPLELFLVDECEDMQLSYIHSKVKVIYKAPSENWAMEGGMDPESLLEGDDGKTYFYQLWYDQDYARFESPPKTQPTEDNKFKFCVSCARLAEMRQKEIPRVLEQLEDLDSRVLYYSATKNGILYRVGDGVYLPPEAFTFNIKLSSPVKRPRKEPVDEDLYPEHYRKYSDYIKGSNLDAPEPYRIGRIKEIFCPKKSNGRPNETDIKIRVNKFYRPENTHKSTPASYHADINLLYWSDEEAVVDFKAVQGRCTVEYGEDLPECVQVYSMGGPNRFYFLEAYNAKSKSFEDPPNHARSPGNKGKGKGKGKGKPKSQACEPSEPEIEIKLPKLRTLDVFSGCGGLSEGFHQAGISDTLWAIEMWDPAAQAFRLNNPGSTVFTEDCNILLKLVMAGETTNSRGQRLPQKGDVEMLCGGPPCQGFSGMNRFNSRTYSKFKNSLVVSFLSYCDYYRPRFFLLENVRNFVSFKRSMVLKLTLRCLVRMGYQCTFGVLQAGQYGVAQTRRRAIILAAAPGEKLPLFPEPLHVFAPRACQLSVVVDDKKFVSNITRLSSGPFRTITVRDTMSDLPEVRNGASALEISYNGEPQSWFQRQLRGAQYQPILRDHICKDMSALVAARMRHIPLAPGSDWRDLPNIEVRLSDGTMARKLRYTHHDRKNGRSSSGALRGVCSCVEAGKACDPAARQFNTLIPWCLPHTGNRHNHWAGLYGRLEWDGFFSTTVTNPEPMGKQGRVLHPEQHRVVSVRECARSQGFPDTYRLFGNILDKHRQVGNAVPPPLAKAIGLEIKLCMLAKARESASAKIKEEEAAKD

`CCc1c(C#N)c(SC(C(N)=O)c2ccccc2)nc(N2CCC[C@H](NC3CC3)C2)c1C#N` (stereo partly drawn) [Example 684, 2-((3,5-dicyano-6-((S)-3-(cyclopropylamino)piperidin-1-yl)-4-ethylpyridin-2-yl)thio)-2-phenylacetamide] was tested. Which “DNMT1 BioChemical (pIC50 category)” value (DNMT1) did it give?
The value was “D (Category D: ≥6.5)”.

What about the EC50 [1] of the same molecule?
The EC50 was less than 316 nM.

What does the source list for `CCc1c(C#N)c(S[C@@H](C(N)=O)c2ccccc2)nc(N2CC[C@H](N)[C@H](F)C2)c1C#N` [Example 509, (R)-2-((6-((3R,4S)-4-amino-3-fluoropiperidin-1-yl)-3,5-dicyano-4-ethylpyridin-2-yl)thio)-2-phenylacetamide • (0.67)2,2,2-trifluoroacetate • (0.33)methanesulfonate]?
DNMT1 BioChemical (pIC50 category) (DNMT1): D (Category D: ≥6.5); EC50 [1]: < 316 nM

How did the IC50 (DNMT1) turn out when `CCc1c(C#N)c(SC(C(N)=O)c2ccc(OC)cn2)nc(N2CCCN(C)CC2)c1C#N` (centres unmarked) [Example 221, 2-((3,5-Dicyano-4-ethyl-6-(4-methyl-1,4-diazepan-1-yl)pyridin-2-yl)thio)-2-(5-methoxypyridin-2-yl)acetamide] was run?
The IC50 was 316 to 1000 nM.

And the EC50 [1]?
The EC50 was less than 316 nM.

With `CCc1c(C#N)c(SC(C(N)=O)c2ccccc2)nc(N2CCC(NCc3ccc(F)cc3)CC2)c1C#N` (centres unmarked) [Example 474, 2-((3,5-dicyano-4-ethyl-6-(4-((4-fluorobenzyl)amino)piperidin-1-yl)pyridin-2-yl)thio)-2-phenylacetamide] as the molecule, how does the “DNMT1 BioChemical (pIC50 category)” value (DNMT1) read?
Its value is “D (Category D: ≥6.5)”.

And the EC50 [1]?
The EC50 was less than 316 nM.

`CCc1c(C#N)c(SC(C(N)=O)c2ccccc2)nc(N(C)CCNC2(C)CC2)c1C#N` (centres unmarked) [Example 489, 2-(3,5-dicyano-4-ethyl-6-(methyl(2-(1-methylcyclopropylamino)ethyl)amino)pyridin-2-ylthio)-2-phenylacetamide] was tested. Which “DNMT1 BioChemical (pIC50 category)” value (DNMT1) did it give?
The value was “D (Category D: ≥6.5)”.

What about the EC50 [1] of the same molecule?
The EC50 was less than 316 nM.

Which “DNMT1 BioChemical (pIC50 category)” value (DNMT1) does the source give for `CCc1c(C#N)c(SC(C(N)=O)c2ccccc2)nc(N2CCC(OCCN)CC2)c1C#N` (centres unmarked) [Example 149, 2-((6-(4-(2-Aminoethoxy)piperidin-1-yl)-3,5-dicyano-4-ethylpyridin-2-yl)thio)-2-phenylacetamide, Trifluoroacetic Acid Salt] here?
The value was “D (Category D: ≥6.5)”.

What about the “average pIC50 against DNMT1” value (DNMT1; breaklight assay and/or SPA assay, repeated experimental runs) of the same molecule?
The value was greater than 6.5.

What about the EC50 [1] of the same molecule?
The EC50 was less than 316 nM.

What does the source list for `N#Cc1c(SC(C(N)=O)c2ccccc2)nc(N2CCC(OCCN)CC2)c(C#N)c1C1CC1` (centres unmarked) [Example 656, 2-((6-(4-(2-aminoethoxy)piperidin-1-yl)-3,5-dicyano-4-cyclopropylpyridin-2-yl)thio)-2-phenylacetamide]?
DNMT1 BioChemical (pIC50 category) (DNMT1): D (Category D: ≥6.5); EC50 [1]: 1000 to 31600 nM

`CCc1c(C#N)c(SCc2ccc(N(C)S(C)(=O)=O)cc2)nc(N(C)CCNCCF)c1C#N` [Example 500] was tested. Which “DNMT1 BioChemical (pIC50 category)” value (DNMT1) did it give?
The value was “D (Category D: ≥6.5)”.

And the EC50 [1]?
Its EC50 is 1000 to 31600 nM.

`CCOc1c(C#N)c(SC(C)C(N)=O)nc(N2CCCN(CCO)CC2)c1C#N` (centres unmarked) [Example 212, 2-((3,5-Dicyano-4-ethoxy-6-(4-(2-hydroxyethyl)-1,4-diazepan-1-yl)pyridin-2-yl)thio)propanamide] was tested. Which IC50 (DNMT1) did it give?
Its IC50 is 316 to 1000 nM.

What about the EC50 [1] of the same molecule?
Its EC50 is 1000 to 31600 nM.

How did the “DNMT1 BioChemical (pIC50 category)” value (DNMT1) turn out when `CCOc1c(C#N)c(SC(C(N)=O)c2ccccc2)nc(N(C)C)c1C#N` (centres unmarked) [Example 192, 2-((3,5-Dicyano-6-(dimethylamino)-4-ethoxypyridin-2-yl)thio)-2-phenylacetamide] was run?
Its value is “D (Category D: ≥6.5)”.

What about the EC50 [1] of the same molecule?
The EC50 was 1000 to 31600 nM.

How did the “DNMT1 BioChemical (pIC50 category)” value (DNMT1) turn out when `CCc1c(C#N)c(SC(C(N)=O)c2ccccc2)nc(N2CCC(OCCOC(=O)[C@@H](N)C(C)C)CC2)c1C#N` (stereo partly drawn) [Example 153, (2S)-2-((1-(6-((2-Amino-2-oxo-1-phenylethyl)thio)-3,5-dicyano-4-ethylpyridin-2-yl)piperidin-4-yl)oxy)ethyl 2-amino-3-methylbutanoate] was run?
Its value is “D (Category D: ≥6.5)”.

And the EC50 [1]?
The EC50 was 316 to 1000 nM.

`N#Cc1c(SC(C(N)=O)c2ccccc2)nc(N2CC(NC(=O)[C@@H](N)CO)C2)c(C#N)c1C1CC1` (stereo partly drawn) [Example 611, (2S)-2-amino-N-(1-(6-((2-amino-2-oxo-1-phenylethyl)thio)-3,5-dicyano-4-cyclopropylpyridin-2-yl)azetidin-3-yl)-3-hydroxypropanamide] was tested. Which “DNMT1 BioChemical (pIC50 category)” value (DNMT1) did it give?
Its value is “D (Category D: ≥6.5)”.

And the EC50 [1]?
Its EC50 is 1000 to 31600 nM.

With `CCc1c(C#N)c(SCc2ccc3c(c2)C(=O)C(=O)N3)nc(N2CCCN(C)CC2)c1C#N` [Example 348, 2-(((2,3-Dioxoindolin-5-yl)methyl)thio)-4-ethyl-6-(4-methyl-1,4-diazepan-1-yl)pyridine-3,5-dicarbonitrile] as the molecule, how does the IC50 (DNMT1) read?
Its IC50 is 316 to 1000 nM.

And the EC50 [1]?
Its EC50 is greater than 31600 nM.

Which results are given for `CCc1c(C#N)c(SC(C(N)=O)c2ncccc2F)nc(N2CCCN(C)CC2)c1C#N` (centres unmarked) [Example 220, 2-((3,5-Dicyano-4-ethyl-6-(4-methyl-1,4-diazepan-1-yl)pyridin-2-yl)thio)-2-(3-fluoropyridin-2-yl) acetamide]?
IC50 (DNMT1): 316 to 1000 nM; EC50 [1]: < 316 nM

`N#Cc1c(SC(C(N)=O)c2ccccc2)nc(N2CCC(N3CCOCC3)CC2)c(C#N)c1C1CC1` (centres unmarked) [Example 16] was tested. Which “DNMT1 BioChemical (pIC50 category)” value (DNMT1) did it give?
The value was “D (Category D: ≥6.5)”.

What about the EC50 [1] of the same molecule?
The EC50 was less than 316 nM.

How did the IC50 (DNMT1) turn out when `CCc1c(C#N)c(SCc2ccc3[nH]cnc3c2)nc(N2CCCN(C)CC2)c1C#N` [Example 390, 2-(((1H-Benzo[d]imidazol-5-yl)methyl)thio)-4-ethyl-6-(4-methyl-1,4-diazepan-1-yl)pyridine-3,5-dicarbonitrile] was run?
Its IC50 is 316 to 1000 nM.

And the EC50 [1]?
Its EC50 is 316 to 1000 nM.

What does the source list for `CCc1c(C#N)c(SC(C(N)=O)c2ccccc2)nc(N2CCC(NCC(F)F)CC2)c1C#N` (centres unmarked) [Example 554, 2-((3,5-dicyano-6-(4-((2,2-difluoroethyl)amino)piperidin-1-yl)-4-ethylpyridin-2-yl)thio)-2-phenylacetamide]?
DNMT1 BioChemical (pIC50 category) (DNMT1): D (Category D: ≥6.5); EC50 [1]: < 316 nM
